Here are results for 15 molecules from ChEMBL document CHEMBL1201862, “PubChem BioAssay data set” (2004).

Test systems include DMS-273; LXFL 529; DMS-114; M19-MEL; HOP-18; SNB-78; XF498; DU-145; RXF 631.
Holding throughout (assay): NCI tumour cell line growth inhibition, 48 h

SMILES strings stand for the structures.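 Five concentrations, 48 hours, 96-well plates. Abbreviation: GI50, concentration required for 50% inhibition of growth.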 The source made the active and inactive calls. Cut-off read from the data, not from the text of the source: active = GI50 up to about 1.1 µM and inactive = higher.

Take `O=C1C[C@@H]2[C@@H](C=CC23CCCC3)N1O`: the GI50 with DMS-273, in the assay with LXFL 529, with DMS-114, in the assay on M19-MEL, with HOP-18 and in the assay on SNB-78 was > 100 µM (inactive) in each case.
On to `CC(C)OP(=O)(OC(C)C)/C(=N/Nc1ccc([N+](=O)[O-])cc1)Nc1ccc(N/C(=N\Nc2ccc([N+](=O)[O-])cc2)P(=O)(OC(C)C)OC(C)C)cc1`, for which the GI50 is 5.58 µM (inactive) in the assay with DMS-273; 19.6 µM (inactive) in the assay with LXFL 529; 9.51 µM (inactive) in the assay with DMS-114; > 100 µM (inactive) with XF498; 82.4 µM (inactive) in the assay on M19-MEL.
Regarding `CC1=C[C@@H]2[C@@H](CC(CO)=C[C@H]3[C@@H]4C(C)(C)[C@]4(OCC(C)C)[C@H](OCC(C)C)[C@@H](C)[C@]23O)C1=O`, the GI50 in the assay on DU-145 is 3.2 µM (inactive).
Turning to `O=S(=O)(N=S(c1ccccc1)c1ccccc1)c1ccccc1`, the GI50 in the assay on DU-145 is > 100 µM (inactive).
On the same count and under the same terms, in the case of `Nc1ncnc2c1cnn2Cc1ccc(Cl)cc1` it was > 100 µM (inactive); in that of `N#CCCN(CCC#N)c1ccc(C(=N/c2ccc(Cl)cc2)/N=N/c2ccc(Cl)cc2)cc1`, 15.5 µM (inactive).
With `CCCCNC(=S)Nc1nc(C(=O)NNC(=S)NC2CCCCC2)cs1`, in the assay on DU-145, the GI50 was > 100 µM (inactive).
In the case of `O=C(O)c1ccccc1CN1CCCC(C(=O)O)C1` (stereo not given), the GI50 with DU-145 is > 100 µM (inactive).
Regarding `N#Cc1c(N)nc(Nc2cccc3ccccc23)c(C#N)c1C#N`, the GI50 with DU-145 was > 10 µM (inactive).
Turning to `COC(=O)C(NC(=O)c1ccccc1)C(c1c(O)cc(O)cc1O)P(=O)(OC)OC` (stereo not given), the GI50 in the assay on DMS-273 was 42.5 µM (inactive); with LXFL 529, 54 µM (inactive); in the assay on DMS-114 it was > 100 µM (inactive); in the assay on XF498 it was > 100 µM (inactive); in the assay on M19-MEL, > 100 µM (inactive); in the assay with RXF 631, > 100 µM (inactive).
As for `COC(=O)CCC(=O)c1ccc2c(c1)CCC2`, the GI50 in the assay with DU-145 is > 100 µM (inactive).
`C=C1C(=O)O[C@@H]2[C@H](O)[C@@H](C)[C@@H]3C=CC(=O)[C@@]3(C)[C@H](OC(=O)C=C(C)C)[C@H]12`: the GI50 with DMS-273 was 1.48 µM (inactive); with DMS-114, 2.4 µM (inactive); in the assay with XF498, 1.24 µM (inactive); in the assay with M19-MEL it was 1.12 µM (active); in the assay on HOP-18 it was 1.67 µM (inactive).
In the case of `Nc1nc(=O)c2c([nH]1)NCC(CNc1ccc(C(=O)N[C@@H](CCC(=O)O)C(=O)O)cc1)N2C=O` (stereo not given in full) [LEUCOVORIN CALCIUM], the GI50 in the assay on DMS-273, in the assay with DMS-114, in the assay on M19-MEL, in the assay with HOP-18 and in the assay on SNB-78 was > 125 µM (inactive) throughout.
Consider `NC(CCCCO)C(=O)O` (stereo not given), for which, in the assay with DU-145, the GI50 is > 100 µM (inactive).
In the case of `O=S(O)CCCCCSSSCCCCCS(=O)O`, the GI50 in the assay on LXFL 529 is 11.4 µM (inactive); with XF498, 5.32 µM (inactive); in the assay with M19-MEL it was 22.1 µM (inactive); in the assay with SNB-78 it was 45.6 µM (inactive).
